Assay results: publication PMC5488423, “Prevention of dendritic and synaptic deficits and cognitive impairment with a neurotrophic compound” (Alzheimer's Research & Therapy, 2017)
Residues, ends and D or L forms follow the SMILES beside them.

Key:
[1] = set-up: method as in PMID 25046994; conditions: over 120 min; cited from earlier work
3 × Tg-AD mice = assay: Side effects and safety during chronic dietary treatment; type: in vivo, mouse; conditions: 60 nmol P021/g feed in diet
Description: At approximately 3 months of age, the animals were divided into three groups: one group of 3 × Tg-AD-P021 (n = 32) treated with 60 nmol P021/g feed in the diet; a second group of 3 × Tg-AD-vh (n = 35) treated with the same diet but without P021; and a third group of WT (n = 41) treated with the same diet but without P021. P021 was formulated by Research Diets (New Brunswick, NJ, USA). Food consumption was recorded every 2 weeks and body weight every month. The average mouse food consumption was ~2.7 g feed/day.

[2] = set-up: method as in PMID 25046994; conditions: cited from earlier work
[3] = set-up: method as in PMID 25046994; conditions: cited from earlier work; remark: listed apart in the source
[4] = set-up: method as in PMID 25046994; conditions: over 30 min; cited from earlier work

For `CC(=O)N[C@@H](CC(=O)O)C(=O)NCC(=O)NCC(=O)N[C@@H](CC(C)C)C(=O)NC12CC3CC(C1)CC(C(N)=O)(C3)C2` [Peptide P021] (HELM PEPTIDE1{[ac].D.G.G.L.[NC(=O)C12CC3CC(CC(N[*:1])(C3)C1)C2]}$$$$V2.0), the “stability in intestinal fluid” value [1] is given as ~ 100%, the “side effects or safety issues” value (3 × Tg-AD mice; preclinical study of almost 2 years) is given as “did not show any severe side effects or safety issues” and the “weight loss, tumors, or signs of pain” value (3 × Tg-AD mice; treatment for around 18 months) is given as “did not show any weight loss, tumors, or signs of pain”. For the same compound, the plasma stability [2] was greater than 3 h, the “blood–brain barrier permeability” value [3] was “blood–brain barrier permeable” and the “stability in artificial gastric juice” value [4] was greater than 95%.
